Source: US20070092551A1, “Therapeutic agent” (TAKARA BIO INC., priority 2003, published 2007)

What was measured:
Assay type in all cases: cell-based
[1] = tested on: 3T3-L1 cells; test: Induction of adipocyte differentiation (amount of triglyceride biosynthesis); details: Mus musculus, 3T3-L1, X=(S−N)/(P−N) of amount of triglyceride, P=insulin positive control, read-out: Action for Induction of Differentiation
Method in brief: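 3T3-L1 cells were grown 7 days in DMEM/10% FBS/200 μM ascorbic acid, then given test compound with 0.25 μM dexamethasone for 45 h, then compound alone for 7 days, re-dosed at medium changes. Hexane:isopropanol-extracted triglyceride was measured in duplicate; X=(S−N)/(P−N) versus DMSO (N) and insulin (P), ranked +++ to +/−.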

[2] = tested on: mature adipocytes (3T3-L1 cells); test: Enhancing action on glucose uptake (2-deoxyglucose) into mature adipocytes; details: Mus musculus, 3T3-L1, X=(S−N)/(P−N) of 2-deoxyglucose uptake, P=insulin 1 μg/mL, read-out: Enhancing Action on Glucose Uptake
[3] = molecular target: T1, fusion protein of an yeast GAL4 DNA-binding domain and a human PPARγ ligand-binding site (Homo sapiens, UniProt P37231); test: PPARγ activation reporter assay in CV-1 cells; details: test compound 10 μM, pFA-CMV (PPARγ), 24 hours
T1 construct: expressed in transfected cells; host or cells: CV-1 cells
T1 sequence (P37231 204-505): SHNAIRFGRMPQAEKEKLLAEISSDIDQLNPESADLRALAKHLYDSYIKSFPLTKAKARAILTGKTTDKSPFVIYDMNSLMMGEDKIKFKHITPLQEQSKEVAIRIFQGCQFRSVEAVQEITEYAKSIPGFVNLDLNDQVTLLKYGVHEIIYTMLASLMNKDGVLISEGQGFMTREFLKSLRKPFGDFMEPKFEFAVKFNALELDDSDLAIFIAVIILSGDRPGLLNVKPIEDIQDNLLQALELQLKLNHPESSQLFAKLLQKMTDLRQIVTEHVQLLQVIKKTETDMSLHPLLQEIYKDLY
Method: The activation ability for PPARγ was determined by a reporter assay using a fusion protein of an yeast GAL4 DNA-binding domain and a human PPARγ ligand-binding site.
A plasmid (pGAL4/GL3-Promoter) was prepared by repeating five times insertion of a binding site (UASg) of GAL4 into a multicloning site of a pGL3-Promoter vector (Promega). In addition, a ligand-binding site (amino acid sequence 204 to 505) of the PPARγ gene was cloned from a human liver cDNA library (manufactured by TAKARA BIO INC.) by a polymerase chain reaction, and the ligand-binding site was inserted into a multicloning site of a pFA-CMV plasmid vector ([…]) to give pFA-CMV (PPARγ).
Escherichia coli JM-109 strain was transformed with each of the two kinds of the plasmids obtained by the above-mentioned procedures, and pFA-CMV and pRL-TK (Promega) according to a conventional method. Each of the Escherichia coli cells was cultured with shaking at 37° C. for 18 hours in an LB medium containing 100 μg/mL ampicillin. Thereafter, the plasmids of each were purified according to the procedure manual of QIAfilter Plasmid midi Kit (QIAGEN).
CV-1 cells were seeded in a 24-well plate so as to have a density of 4×10^4 cells per well. Thereafter, the cells were cultured in a Dulbecco's modified Eagle's medium (manufactured by Sigma, D5796) containing 10% fetal bovine serine (manufactured by Bio Whittaker) for 24 hours under the conditions of 37° C. and 5% CO2. Thereafter, in accordance with the procedure manual of LipofectAmine 2000 (Invitrogen), the gene transfer was carried out into the CV-1 cells with 200 ng of pFA-CMV (PPARγ) or pFA-CMV, 400 ng of pGAL4/GL3-promoter, and 200 ng of pRL-TK per well, and thereafter the cells were cultured for 24 hours under the conditions of 37° C. and 5% CO2. Thereafter, the medium was exchanged with a Dulbecco's modified Eagle's medium to which a test compound dissolved in dimethyl sulfoxide was previously added so as to have a final concentration of 10 μM. Thereafter, the cells were cultured for additional 24 hours. In addition, there were set a group with addition of dimethyl sulfoxide in place of a test compound as a negative control, and a group with addition of troglytazone (manufactured by Calbiochem) so as to have a final concentration of 3 μM as a positive control. The cells were washed with a phosphate buffered saline, and 5× PassiveLysisBuffer (Promega) which was previously diluted in 5-folds with distilled water was added thereto in an amount of 100 μL per well. The mixture was shaken at room temperature for 15 minutes to lyse cells. Twenty microliters of this lysed solution was applied in accordance with the procedure manual of Dual Luciferase Assay System (Promega), and a fluorescent luciferase emission intensity and a Renilla mullerei luciferase emission intensity were measured using Mithras-LB940 (BERTHOLD TECHNOLOGIES GmbH). The enhancing action for transcriptional activation of each test compound was shown as a relative value obtained by calculating a ratio of the fluorescent luciferase emission intensity to the Renilla mullerei luciferase emission intensity, wherein the value of the group with addition of the negative control is defined as 1.

[4] = tested on: mature adipocytes (3T3-L1 cells); test: Glucose uptake enhancement inhibited by cytochalasin B; details: cytochalasin B 40 μM added to the 4-hydroxyderricin 7.8 μM, insulin 1 μg/mL and negative control groups
Method: The influence of cytochalasin B on 2-deoxyglucose uptake into matured adipocytes during the stimulation with the sample in the adipocytes was tested in accordance with the method shown in Example 83 on whether or not the enhancing action of 4-hydroxyderricin on glucose uptake shown in Example 83 is inhibited by cytochalasin B, which is an inhibitor of a glucose transporter.
Specifically, as a sample, a group with addition of a dimethyl sulfoxide solution of 4-hydroxyderricin so as to have a final concentration of 7.8 μM was set. Here, there were set a group without addition of the sample as a negative control and a group with addition of insulin so as to have a final concentration of 1 μg/mL as a positive control. Furthermore, there was set a group with addition of cytochalasin B (manufactured by nacalai tesque, 10435-81) to each group so as to have a final concentration of 40 μM in the same time as the time of addition of insulin. Thereafter, 2-deoxy-[1,2-^3H(N)]-glucose subjected to uptake into the adipocytes was determined in the same manner.

[5] = tested on: mature adipocytes which were induced to be differentiated by xanthoangelol; test: Glucose uptake into adipocytes induced to be differentiated by xanthoangelol; details: stimulation with insulin 1 μg/mL; adipocytes differentiated with xanthoangelol 10 μM
Method: Adipocytes which were induced to be differentiated by xanthoangelol were obtained, and thereafter it was confirmed on whether the glucose uptake into the adipocytes is enhanced by stimulation with insulin or 4-hydroxyderricin.
Specifically, as a sample, there was set a group with addition of a dimethyl sulfoxide solution of xanthoangelol having a final concentration of 10 μM. Thereafter, the medium and the sample were exchanged in the same manner as in the method described in Example 82 except that 3-isobutyl-1-methylxanthine having a final concentration of 0.5 mM was added concurrently with the addition of dexamethasone, to give mature adipocytes which were induced to be differentiated by xanthoangelol.
Next, the amount of 2-deoxyglucose uptake into the mature adipocytes during the stimulation with insulin or 4-hydroxyderricin in the resulting mature adipocytes was determined in the same manner as in the method described in Example 83.
Specifically, there were set the group without the addition and the group with addition of insulin having a final concentration of 1 μg/mL or 4-hydroxyderricin having a final concentration of 20 μM. Thereafter, the amount of 2-deoxy-[1,2-^3H(N)]-glucose uptake into the adipocytes was determined in the same manner.

[6] = tested on: insulin-resistant mature adipocytes; test: Enhancing action on glucose uptake into insulin-resistant (TNF-α treated) mature adipocytes; details: group treated with insulin; mature adipocytes treated with mouse-derived TNF-α 10 or 20 ng/mL
Method: It is said that tumor necrosis factor a (TNF-α) is deeply involved in insulin resistance, and it has been known that a signal from an insulin receptor is inhibited by treating mature adipocytes with TNF-α, so that a reaction of glucose uptake is inhibited by insulin stimulation (Proc. Natl. Acad. Sci. USA, vol. 91, p 4854-4858 (1994)). The enhancing action by 4-hydroxyderricin on glucose uptake into mature adipocytes in which insulin resistance was induced by TNF-α was evaluated.
The induction of differentiation into mature adipocytes was carried out in the same manner as in the method described in Example 83, except that after preparation of the mature adipocytes, in order to induce insulin resistance in these mature adipocytes, mouse-derived TNF-α (manufactured by Cosmobio, 3410) was added to the medium so as to have a final concentration of 10 ng/mL or 20 ng/mL, and the adipocytes were cultured for additional 2 days. […]
The enhancing action on glucose uptake was evaluated in the same manner as in the method described in Example 83. For each of the cells prepared in item (1) of Example 95 mentioned above, there were set a group containing 4-hydroxyderricin at a final concentration of 30 μM, a group without addition of the sample as a negative control, and a group with treatment with insulin, and the radioactivity of each group was determined. […]

Row | Compound | activation at 3 µM [1] | activation at 10 µM [1] | activation at 3 µM [2] | activation at 10 µM [2] | activation at 30 µM [2] | also measured
1 | CC(C)=CCCC(C)(O)C1Cc2c(ccc(C(=O)/C=C/c3ccc(O)cc3)c2O)O1 (stereo not shown) [TB3, 1-[2,3-dihydro-4-hydroxy-2-(1-hydroxy-1,5-dimethyl-4-hexenyl)-benzofuran-5-yl]-3-(4-hydroxyphenyl)-2-propen-1-one] | > 100% | > 100% | 30 to 60% | > 100% |  | 
2 | CCOC(C)(C)C(O)CC/C(C)=C/Cc1c(O)ccc(C(=O)/C=C/c2ccc(O)cc2)c1O (stereo not shown) [TB6, 1-[3-(7-ethoxy-6-hydroxy-3,7-dimethyl-2-octenyl)-2,4-dihydroxyphenyl]-3-(4-hydroxyphenyl)-2-propen-1-one] | 15 to 30% | > 100% |  |  | 30 to 60% | 
3 | COc1ccc(C(=O)/C=C/c2ccc(O)cc2)c(O)c1C/C=C(\C)C/C=C/C(C)(C)OO [TB8, 1-[2-hydroxy-3-(7-hydroperoxy-3,7-dimethyl-2,5-octadienyl)-4-methoxyphenyl]-3-(4-hydroxyphenyl)-2-propen-1-one] | 30 to 60% | > 100% | 15 to 30% | 60 to 100% | 60 to 100% | 
4 | C=C(C)C(CC/C(C)=C/Cc1c(OC)ccc(C(=O)/C=C/c2ccc(O)cc2)c1O)OO (stereo not shown) [TB9, 1-[2-hydroxy-3-(6-hydroperoxy-3,7-dimethyl-2,7-octadienyl)-4-methoxyphenyl]-3-(4-hydroxyphenyl)-2-propen-1-one] |  | > 100% | 15 to 30% | 15 to 30% | 30 to 60% | 
5 | COc1cc(O)c(CC=C(C)C)c(O)c1C(=O)/C=C/c1ccc(O)cc1 [Xanthohumol, 4,2′,4′-trihydroxy-3′-prenyl-6′-methoxychalcone] |  |  |  |  |  | activation at 4 µM ([1]; 4 μM): 15 to 30%; activation at 13 µM ([1]; 13 μM): 30 to 60%; enhancing action for transcriptional activation (PPARγ) [3]: no enhancing action for transcriptional activation was found
6 | C=C1[C@@H](C)[C@H]2[C@H](Cc3ccccc3)NC(=O)[C@]23OC(=O)/C=C/[C@H](O)CCC[C@@H](C)C/C=C/[C@H]3[C@@H]1O [cytochalasin B, reference compound] |  |  |  |  |  | 2-deoxy-[1,2-3H(N)]-glucose uptake on addition of cytochalasin B [4]: almost completely inhibited
7 | insulin: insulin (manufactured by TAKARA BIO INC.), positive control |  |  |  |  |  | 2-deoxy-[1,2-3H(N)]-glucose uptake [5]: enhancement of 2-deoxy-[1,2-^3H(N)]-glucose uptake; enhancing action on glucose uptake, increase without TNF-α defined as 100% [6]: around 40%
